Here are results for four molecules from patent publication US8912355B2, “Linoleic phospholipids and uses thereof for inhibiting inflammatory and neurodegenerative processes” (University of Ottawa Heart Institute, priority 2009, dated 2014).

Entries after “also recorded” stand apart in the source; their conditions may differ.

Assay [1] has as its system ERK1/2. The assay can be described thus: TNFα- or H2O2-induced ERK1/2 (MAPK) phosphorylation in SH-SY5Y cells, Western blot. In kind it is cell-based, human. Conditions: for TNFα-induced ERK1/2 phosphorylation: TNFα 10 ng/ml. The procedure:
(§1) Cells and Cell Culture—Human neuroblastoma (SH-SY5Y) cells were obtained from American Type Cell Culture (ATCC Number CRL-2266; Manassas, Va., USA). SH-SY5Y was cultured and maintained in F12:DMEM (1:1, v/v) media condition with 10% FBS and 1% penicillin/streptomycin in a 37° C./5% CO2 exchange condition. Passages 3-10 were used in the present study and confluent cells were subjected to stimulation with drugs for indicated times under serum-starved conditions.
(§2) Preparation of Phospholipid Vesicles—Phospholipid Vesicles in Phosphate-Buffered saline (PBS; 1 mg/mL) were prepared by sonication as previously described (8). Briefly, pure dilinoeoylphosphatidylcholine (DLPC) in chloroform was dried down under N2 and 1 mL of PBS was added by vortexing. The mix was then sonicated (Branson sonicator set at 100% duty cycle and 10% power) for 1 min. The sonicated preparation was incubated for 30 min at 37° C. in a water bath, and samples were resonicated for 5 min at 95% duty cycle and 10% power and filtered before use.
(§3) Western Blot Analysis—After incubation with drugs for the indicated times and doses, cells were washed twice with ice-cold PBS-T on ice. Cells were lysed by adding buffer [NaF 1 mmol/L, NaCl 5 mmol/L, EDTA 1 mmol/L, NP40 1 mmol/L (Roche Diagnostics, Indianapolis, Ind.), HEPES 10 mmol/L, pepstatin A 1 mg/mL, leupeptin 1 mg/mL, aprotinin 1 mg/mL, Na3VO4 1 mmol/L, and PMSF 1 mmol/L] and total protein was extracted. An equal amount of cell proteins were separated by 12% SDS-PAGE and were analyzed by Western blot using specific antibodies to TNFα, Aβ, APP, phospho-ERK1/2, ERK1/2, phospho-tau, tau, phospho-IκBα, IκBα, phospho-NF-κB and NF-κB. Blots for the similar experiments were also subjected to β-actin for a loading control. Band intensity was analyzed with the Alpha-Innotech Fluor Chem™ HD Imager.
Experiments were undertaken to determine if DLPC can block a tumor necrosis factor (TNFα) activation of MAPK in neuroblastoma cells. […]
A general note: In western blotting, separated proteins are transferred to a membrane and probed.

Assay [2] concerns IκBα. The assay can be described thus: TNFα-induced IκBα phosphorylation and degradation in SH-SY5Y cells, Western blot. The class given is cell-based, human. Conditions: TNFα 10 ng/ml. The procedure:
as §3, with “Blots for the similar experiments were also subjected to β-actin for a loading control.” left out

The subject of assay [3] is NF-κB. The assay can be described thus: TNFα-induced NF-κB phosphorylation in SH-SY5Y cells, Western blot. The class given is cell-based, human. As for the experimental part: as §1, §2, §3
The effect of a selective MAPK inhibitor, U0126, on a TNFα induction of MAPK and nuclear factor kappa B (NF-κB) was evaluated. […] TNFα induced a 3-fold increase in NF-κB phosphorylation in SH-SY5Y cells at 5 min after treatment (FIG. 4). DLPC blocked the increase in neuronal NF-κB phosphorylation by ˜50% over 5-30 min post treatment with TNFα.

Assay [4] relates to tau. The assay can be described thus: Agonist-induced tau phosphorylation (AT8) in SH-SY5Y cells, Western blot. The class given is cell-based, human. As for the experimental part: as §1, §2, §3
The effect of pro-inflammatory and oxidative stress agonists on tau phosphorylation were also evaluated in SH-SY5Y cells.

Assay [5] relates to amyloid precursor protein (APP). The assay can be described thus: Basal amyloid precursor protein expression in SH-SY5Y cells, Western blot. In kind it is cell-based, human. The note with it: unstimulated SH-SY5Y; DLPC 12 μM, 24 h. As for the experimental part: SH-SY5Y cells were incubated with DLPC (12 μM) for 24 h and APP expression was analyzed in total cell lysates by Western blotting. Histograms representing densitometry analysis of APP and the values are presented relative to total β-actin control and are expressed as mean±SEM of at least 3 independent experiments. *P<0.05 vs control.
as §1
Preparation of Phospholipid Vesicles—Phospholipid Vesicles in Phosphate-Buffered saline (PBS; 1 mg/mL) were prepared by sonication as previously described (8). […]
Western Blot Analysis—After incubation with drugs for the indicated times and doses, cells were washed twice with ice-cold PBS-T on ice. […] An equal amount of cell proteins were separated by 12% SDS-PAGE and were analyzed by Western blot using specific antibodies to TNFα, Aβ, APP, phospho-ERK1/2, ERK1/2, phospho-tau, tau, phospho-IκBα, IκBα, phospho-NF-κB and NF-κB. […] Band intensity was analyzed with the Alpha-Innotech Fluor Chem™ HD Imager.

For assay [6], the system named is amyloid-β. In words: Amyloid-β secretion into conditioned media of SH-SY5Y cells, Western blot. The class given is cell-based, human. As for the experimental part:
SH-SY5Y cells were pretreated with DLPC (12 μM) for 30 minutes and then incubated with LPS (100 ng/mL) for 24 h. Conditioned media from each experiment were collected and subjected to Western blot analysis for amyloid-β. Loading volumes were adjusted relative to total cell protein. Histograms representing densitometry analysis of amyloid-(3 and are expressed as mean±SEM of at least 3 independent experiments. *P<0.001 vs control and **P<0.001 vs LPS alone.
Cells and Cell Culture—Human neuroblastoma (SH-SY5Y) cells were obtained from American Type Cell Culture (ATCC Number CRL-2266; Manassas, Va., USA). SH-SY5Y was cultured and maintained in F12:DMEM (1:1, v/v) media condition with 10% FBS and 1% penicillin/streptomycin in a 37° C./5% CO2 exchange condition. Passages 3-10 were used in the present study and confluent cells were subjected to stimulation with drugs for indicated times under serum-starved conditions. […]
Aβ quantification—Aβ immuno-quantification was performed in conditioned media after incubation with the inhibitors/agonists and/or phospholipids for the indicated times and doses. […] Band intensities were analyzed using the Spot-densitometer application of the AlphaEaseFC software and values were corrected with total cell proteins in cell lysates. […] Total protein concentration was determined using the BCA protein assay (Pierce, Rockford, Ill.) in cell lysate. […]

Assay [7] deals with IκBα. The assay can be described thus: LPS-induced IκBα phosphorylation in HepG2 cells, Western blot. The class given is cell-based, human. The note with it: DLPC 12 μM 30 min, LPS 5 μg/ml, 24 h. The procedure:
HepG2 cells were pre-incubated with DLPC (12 μM) for 30 min. and then incubated with LPS (5 μg/ml) for 24 h in DMEM serum-depleted media. Phospho-IκBα and phospho-NF-kB (p-IκBα and p-NF-κB) expression were analyzed by Western blot. Histograms represent densitometry analysis of p-IκBα (A) and p-NF-κB (B) and values are shown relative to β-actin and are expressed as mean±SEM of 3 replicate experiments. *P<0.05 vs LPS alone.
as §3

Assay [8] relates to NF-κB. In words: LPS- or TNFα-induced NF-κB phosphorylation in HepG2 cells, Western blot. In kind it is cell-based, human. The note with it: for TNFα-induced activation of NF-κB (p-NF-κB): DLPC 12 μmol/L, DOPC 12 μmol/L or LA 25 μmol/L for 30 min, TNFα 10 ng/ml, 5 min. As for the experimental part: HepG2 cells were pre-incubated with DLPC (12 μM) for 30 min. and then incubated with LPS (5 μg/ml) for 24 h in DMEM serum-depleted media. Phospho-IκBα and phospho-NF-kB (p-IκBα and p-NF-κB) expression were analyzed by Western blot.
as §3, with “Blots for the similar experiments were also subjected to β-actin for a loading control.” left out

In assay [9] the test system is TNFα. In words: LPS-induced TNFα expression in HepG2 cells, Western blot. In kind it is cell-based, human. The note with it: DLPC 12 μmol/L 30 min, LPS 5 μg/ml, 24 h. As for the experimental part: HepG2 cells were pre-incubated with DLPC (12 μmol/L) for 30 min and then incubated with LPS (5 μg/ml) for 24 h in DMEM serum-depleted media. Cell lysates were analyzed for TNFα expression by Western blot. Values are presented relative to β-actin and are expressed as mean±SEM for 3 replicate experiments. *P<0.05 vs LPS alone.
as §3

Assay [10] has as its system TLR-4. The assay can be described thus: LPS-induced TLR-4 expression in HepG2 cells, Western blot. In kind it is cell-based, human. The note with it: DLPC 12 μmol/L 30 min, LPS 5 μg/ml, 24 h. The procedure:
HepG2 cells were pre-incubated with DLPC (12 μmol/L) for 30 min. and then incubated with LPS (5 μg/ml) for 24 h in DMEM serum-depleted media. Cell lysates were analyzed for TLR-4 expression by Western blot. Values are presented relative to β-actin and are expressed as mean±SEM for 3 replicate experiments. *P<0.05 vs LPS alone.
as §3

For assay [11], the system named is NF-κB. The assay can be described thus: LPS and TNFα induction of NF-κB in CaCO-2 cells (unpublished observations). In kind it is cell-based. The note with it: CaCO-2 cell line; unpublished observations of the inventors.
Assay [12] has as its system Kupffer cells. Conditions: Kupffer cells of ethanol-fed rats; cited from earlier work.
The mark [13] stands for this setting: DLPC 12 μM 30 min, TNFα 10 ng/ml.
The mark [14] stands for this setting: inhibitor 10 μM pretreatment 30 min.
[15] abbreviates: 10 μM pretreatment 30 min, TNFα 10 ng/ml.

Regarding `CCCCC/C=C\C/C=C\CCCCCCCC(=O)OC[C@H](COP(=O)([O-])OCC[N+](C)(C)C)OC(=O)CCCCCCC/C=C\C/C=C\CCCCC` [DLPC, dilinoleoylphosphatidylcholine], the “hydrogen peroxide induction of MAPK” value in assay [1] (DLPC) was “block a hydrogen peroxide induction of MAPK”. In addition, the “TNFα-induced ERK1/2 phosphorylation” value in [1] (DLPC 12 μM pre-incubated 30 min) was “block ERK1/2 phosphorylation for 30 min”. Besides, in assay [2] (DLPC 12 μM 30 min), the IκBα degradation result was “prevented IkBα degradation” and the “TNFα-induced IκBα phosphorylation” value is given as “blocked TNFα-induced IkBα phosphorylation”. In addition, in [3] (setting [13]), the “TNFα-induced NF-κB phosphorylation” value is on record as “inhibited TNFα-induced NF-κB phosphorylation”. In addition, the “block of the TNFα-induced increase in neuronal NF-κB phosphorylation” value in [3] (DLPC 12 μM, 5-30 min post treatment with TNFα) is on record as roughly 50%. Also, the LPS-induced tau phosphorylation result in assay [4] (DLPC 12 μM 30 min, LPS 100 ng/ml) is “blocked the effect both agonists and gave rise to tau phosphoylation levels lower than control values by 30 min”. The TNFα-induced tau phosphorylation entry in assay [4] (setting [13]) was “blocked the effect both agonists and gave rise to tau phosphoylation levels lower than control values by 30 min”. Further, in assay [5], the “decrease of basal expression of amyloid precursor protein (APP)” value was roughly 25%. Further, in assay [6] (DLPC 12 μM 30 min, LPS 100 ng/mL, 24 h), the “LPS-induced increase in Aβ secretion” value is recorded as “completely blocked”. For the same molecule, the “decrease of basal secretion of Aβ” value in assay [6] (DLPC 12 μM, 24 h conditioned media) is listed as 65%. In [7], the “LPS-induced IκBα phosphorylation” value was “inhibits LPS-induced IkBα and NF-κB phosphorylation after 24 h”. The “LPS-induced NF-κB phosphorylation / activation” value in assay [8] (DLPC 12 μM 30 min, LPS 5 μg/ml, 24 h) is “inhibits LPS-induced IkBα and NF-κB phosphorylation after 24 h; also recorded: inhibits activation of NF-κB in HepG2 cells for up to 24 h”. In addition, in assay [8], the “TNFα-induced activation of NF-κB (p-NF-κB)” value was “block activation of NF-κB”. In addition, the “LPS-induced increase in TNFα expression” value in [9] is “inhibits an LPS-induced increase in TNFα expression”. For the same molecule, the “LPS-induced increase in TLR-4 expression” value in assay [10] was “blocks an LPS-induced increase in TLR-4 expression”. Also, the “LPS and TNFα induction of NF-κB” value in assay [11] is “can block an LPS and TNFα induction of NF-κB”. Besides, in assay [12], the NF-κB activation entry is “decreases induction of TNFα secretion and NF-κB activation”; the “induction of TNFα secretion” value is reported as “decreases induction of TNFα secretion”.

Regarding `CCCCCCCC/C=C\CCCCCCCC(=O)OC[C@H](COP(=O)([O-])OCC[N+](C)(C)C)OC(=O)CCCCCCC/C=C\CCCCCCCC` [DOPC, dioleoyl phosphatidylcholine, reference compound], in assay [8], the “TNFα-induced activation of NF-κB (p-NF-κB)” value is given as “no impact”.

As for `CS/C(N)=C(C#N)/C(C#N)=C(\N)SC` [U0124, reference compound], the “TNFα-induced ERK1/2 phosphorylation” value in assay [1] (setting [14]) is on record as “no effect”. Further, the NF-κB phosphorylation status result in assay [3] (setting [15]) is recorded as “no effect”.

Take `N#CC(=C(/N)Sc1ccccc1N)/C(C#N)=C(\N)Sc1ccccc1N` [U0126, reference compound]: the “TNFα-induced ERK1/2 phosphorylation” value in assay [1] (setting [14]) is “blocked the phosphorylation of ERK1/2”. Further, the “reduction of TNFα-induced IκBα phosphorylation” value in [2] (10 μM pretreatment 30 min) is given as roughly 50%. The “reduction of TNFα-induced NF-κB phosphorylation” value in assay [3] (setting [15]) is listed as roughly 50%. In addition, in assay [4] (U0126 10 μM pretreatment 30 min, TNFα 10 ng/ml, 5 min), the “TNFα-induced phosphorylation of tau (AT8)” value is listed as “completely blocked”.
